{
  "source": "patent EP1874270B1",
  "about": "“PHARMACEUTICAL AEROSOL COMPOSITION” (priority 2005, dated 2006)",
  "key": {"[1]": {"experiment": "Colloidal solubilization of the active agent with non-ionic surfactant and lecithin"}, "[2]": {"format": "physicochemical", "protocol": "Buffered aqueous solutions of tyloxapol, DMPC and tyloxapol in a mixture with DMPC were prepared. The saturation solubility of budesonide in these solutions was measured by adding an excess of budesonide and treating the sample with heat and ultrasound and subsequently allowing it to stand for equilibration. The equilibrated samples were filtered through a membrane filter with a pore width of 0.22 µm and the content of budesonide in the filtrate was determined. […]"}, "[3]": {"experiment": "Inhalation experiments: local anesthetic effect", "format": "in vivo", "conditions": "inhalation of 0.55 % (w/v) lidocaine base in colloidal tyloxapol/DMPC solution (Example 5); effect undesirable in this context", "text": "Sometimes, but not necessarily, bad taste is accompanied by mucosal irritations caused by the substance. This occurs in various degrees which, in the case of application by inhalation, may range from slight irritation of the pharynx and/or respiratory tract to cough, fits of coughing, bronchoconstrictions and bronchospasms. […] In a further embodiment of the invention, the preparation accordingly contains an active agent which is irritating to the mucosa or causes coughing or bronchoconstrictions. In this connection, active agents from the group of corticoids, betamimetics, anti-cholinergics, anesthetics and antiinfectives are again preferred.\nAfter a sterile filtration, the colloidal solution was filled into pre-sterilized single dose containers (0.5 - 3 ml) of glass and polypropylene."}, "[4]": {"conditions": "Polysorbate 80 0.10 wt.-%, Lipoid S100 1.0 wt.-%, ratio 1:10"}, "[5]": {"conditions": "Polysorbate 80 0.50 wt.-%, Lipoid S100 3.0 wt.-%, ratio 1 : 6"}},
  "data": [
    {"smiles": "CCCC1O[C@@H]2C[C@H]3[C@@H]4CCC5=CC(=O)C=C[C@]5(C)[C@H]4[C@@H](O)C[C@]3(C)[C@]2(C(=O)CO)O1", "note": "(stereo partly drawn) [Budesonide, budesonide]", "values": [
      {"measurement": "Budesonide solubilized", "setting": "[1]; [4]", "value": 0.36, "unit": "mg/mL"},
      {"measurement": "Budesonide solubilized", "setting": "[1]; Polysorbate 80 0.15 wt.-%, Lipoid S100 1.5 wt.-%, ratio 1:10", "value": 0.43, "unit": "mg/mL"},
      {"measurement": "Budesonide solubilized", "setting": "[1]; Polysorbate 80 0.25 wt.-%, Lipoid S100 1.5 wt.-%, ratio 1 : 6", "value": 0.47, "unit": "mg/mL"},
      {"measurement": "Budesonide solubilized", "setting": "[1]; Polysorbate 80 0.40 wt.-%, Lipoid S100 1.5 wt.-%, ratio 1 : 3.75 (for comparison and/or reference only)", "value": 0.50, "unit": "mg/mL"},
      {"measurement": "Budesonide solubilized", "setting": "[1]; Polysorbate 80 0.50 wt.-%, Lipoid S100 2.0 wt.-%, ratio 1:4 (for comparison and/or reference only)", "value": 0.83, "unit": "mg/mL"},
      {"measurement": "Budesonide solubilized", "setting": "[1]; [5]", "value": 1.09, "unit": "mg/mL"},
      {"measurement": "Budesonide solubilized", "setting": "[1]; Solutrol HS 15 0.10 wt.-%, Lipoid S100 1.5 wt.-%, ratio 1 : 15", "value": 0.43, "unit": "mg/mL"},
      {"measurement": "Budesonide solubilized", "setting": "[1]; Solutrol HS 15 0.25 wt.-%, Lipoid S100 1.5 wt.-%, ratio 1 : 6", "value": 0.47, "unit": "mg/mL"},
      {"measurement": "Budesonide solubilized", "setting": "[1]; Solutrol HS 15 0.50 wt.-%, Lipoid S100 1.5 wt.-%, ratio 1 : 3.33 (for comparison and/or reference only)", "value": 0.48, "unit": "mg/mL"},
      {"measurement": "Budesonide solubilized", "setting": "[1]; Vitamin E TPGS 0.10 wt.-%, Lipoid S100 1.0 wt.-%, ratio 1 : 10", "value": 0.37, "unit": "mg/mL"},
      {"measurement": "Budesonide solubilized", "setting": "[1]; Vitamin E TPGS 0.10 wt.-%, Lipoid S100 1.5 wt.-%, ratio 1 : 15", "value": 0.44, "unit": "mg/mL"},
      {"measurement": "Budesonide solubilized", "setting": "[1]; Vitamin E TPGS 0.25 wt.-%, Lipoid S100 1.5 wt.-%, ratio 1 : 6", "value": 0.46, "unit": "mg/mL"},
      {"measurement": "Budesonide solubilized", "setting": "[1]; Vitamin E TPGS 0.50 wt.-%, Lipoid S100 1.5 wt.-%, ratio 1 : 3.33 (for comparison and/or reference only)", "value": 0.48, "unit": "mg/mL"},
      {"measurement": "Budesonide solubilized", "setting": "[1]; Vitamin E TPGS 0.50 wt.-%, Lipoid S100 2.0 wt.-%, ratio 1 : 4 (for comparison and/or reference only)", "value": 0.80, "unit": "mg/mL"},
      {"measurement": "Budesonide solubilized", "setting": "[1]; Vitamin E TPGS 0.50 wt.-%, Lipoid S100 3.0 wt.-%, ratio 1 : 6", "value": 1.09, "unit": "mg/mL"},
      {"measurement": "budesonide colloidally solubilized at a concentration of", "setting": "[1]; vitamin E TPGS 0.04 wt.-%, polysorbate 80 0.06 wt.-%, lecithin 1.0 wt.-%", "value": 0.38, "unit": "mg/mL"},
      {"measurement": "budesonide colloidally solubilized at a concentration of", "setting": "[1]; vitamin E TPGS 0.2 wt.-%, polysorbate 80 0.3 wt.-%, lecithin 3.0 wt.-%", "value": 0.95, "unit": "mg/mL"},
      {"measurement": "saturation concentration of budesonide in DMPC solutions", "setting": "[2]", "value": "could not be increased"}
    ]},
    {"smiles": "CCC(=O)O[C@]1(C(=O)SCF)[C@H](C)C[C@H]2[C@@H]3C[C@H](F)C4=CC(=O)C=C[C@]4(C)[C@@]3(F)[C@@H](O)C[C@@]21C", "note": "[Fluticasone prop., fluticasone propionate]", "values": [
      {"measurement": "Fluticasone prop. solubilized", "setting": "[1]; [4]", "value": 0.07, "unit": "mg/mL"},
      {"measurement": "Fluticasone prop. solubilized", "setting": "[1]; [5]", "value": 0.18, "unit": "mg/mL"}
    ]},
    {"smiles": "CCN(CC)CC(=O)Nc1c(C)cccc1C", "note": "[lidocaine]", "values": [
      {"measurement": "local anesthetic effect of lidocaine", "setting": "[3]", "value": "reduced"}
    ]}
  ]
}
